From patent US6479435B1, “Diaryl ethers and processes for their preparation and herbicidal and desiccant compositions containing them” (ISK Americas Incorporated, priority 1997, dated 2002)

What was measured:
Format in all cases: in vivo
[1] = system: common ragweed (Ambrosia artemisiifolia L., AMBEL); assay: Post-emerge greenhouse herbicide test, phytotoxicity rating; conditions: 14 days after application, scale 0-100
In short: (§1)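 Compounds in acetone with 0.25% v/v non-ionic surfactant were track-sprayed at 187 l/ha over plants at the 2-3 leaf stage, at 63 to 1000 g ai/ha. Pots were bottom-watered. Injury was scored visually 14 days later on a 0-100 scale, where 0 is no damage and 100 is complete plant death.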

[2] = system: soybean (Glycine max L., var. Pella 86, SOY); assay: Post-emerge greenhouse test, crop damage rating; set-up: key to crop damage rating SOY: 0-100 scale: 0 = no damage, 100 = complete death of all plants; conditions: 14 days after application, scale 0-100
In short: as §1

[3] = system: soybean (Glycine max L., var. Pella 86, SOY); assay: Pre-emerge greenhouse test, crop damage rating; set-up: key to SOY crop damage rating: 0 = no damage, 100 = complete death of all plants; conditions: 14 days after application, rating scale 0-100
In short: (§2)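 Seeds sown in sandy loam mix one day before track-sprayer application of compounds in acetone at 125–1000 g ai/ha (187 l/ha), then surface-watered to incorporate and bottom-watered. Visual rating 14 days after application on a 0–100 scale (0 = no damage, 100 = all plants dead).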

[4] = system: barnyardgrass (Echinochloa crusgalli, ECHCG); assay: Post-emerge greenhouse herbicide test, phytotoxicity rating; conditions: 14 days after application, scale 0-100
In short: as §1

[5] = system: velvetleaf (Abutilon theophrasti, ABUTH); assay: as above; conditions: 14 days after application, scale 0-100
In short: as §1

[6] = system: lambsquarters (Chenopodium album, CHEAL); assay: as above; conditions: 14 days after application, scale 0-100
In short: as §1

[7] = system: large crabgrass (Digitaria sanguinalis, DIGSA); assay: as above; conditions: 14 days after application, scale 0-100
In short: as §1

[8] = system: Johnsongrass (Sorghum halepense, SORHA); assay: as above; conditions: 14 days after application, scale 0-100
In short: as §1

[9] = system: green foxtail (Setaria viridis, SETVI); assay: as above; conditions: 14 days after application, scale 0-100
In short: as §1

[10] = system: ivyleaf morningglory (Ipomoea hederacea, IPOHE); assay: as above; conditions: 14 days after application, scale 0-100
In short: as §1

[11] = system: sicklepod (Cassia obtusifolia, CASOB); assay: as above; conditions: 14 days after application, scale 0-100
In short: as §1

[12] = system: redroot pigweed (Amaranthus retroflexus, AMARE); assay: as above; conditions: 14 days after application, scale 0-100
In short: as §1

[13] = system: upland rice (Oryza sp., var.Tebonnet, RICE); assay: Pre-emerge greenhouse test, crop damage rating; conditions: 14 days after application, rating scale 0-100
In short: as §2

[14] = system: field corn (Zea mays L., var. Dekalb 535, CORN); assay: Pre-emerge greenhouse test, crop damage rating; conditions: 14 days after application, rating scale 0-100
In short: as §2

[15] = system: upland rice (Oryza sp., var.Tebonnet, RICE); assay: Post-emerge greenhouse test, crop damage rating; conditions: 14 days after application, scale 0-100
In short: as §1

[16] = system: field corn (Zea mays L., var. Dekalb 535, CORN); assay: Post-emerge greenhouse test, crop damage rating; conditions: 14 days after application, scale 0-100
In short: as §1

[17] = system: barnyardgrass (Echinochloa crusgalli, ECHCG); assay: Pre-emerge greenhouse herbicide test, phytotoxicity rating; conditions: 14 days after application, rating scale 0-100
In short: as §2

[18] = system: velvetleaf (Abutilon theophrasti, ABUTH); assay: as above; conditions: 14 days after application, rating scale 0-100
In short: as §2

[19] = system: lambsquarters (Chenopodium album, CHEAL); assay: as above; conditions: 14 days after application, rating scale 0-100
In short: as §2

[20] = system: large crabgrass (Digitaria sanguinalis, DIGSA); assay: as above; conditions: 14 days after application, rating scale 0-100
In short: as §2

[21] = system: Johnsongrass (Sorghum halepense, SORHA); assay: as above; conditions: 14 days after application, rating scale 0-100
In short: as §2

[22] = system: green foxtail (Setaria viridis, SETVI); assay: as above; conditions: 14 days after application, rating scale 0-100
In short: as §2

[23] = system: ivyleaf morningglory (Ipomoea hederacea, IPOHE); assay: as above; conditions: 14 days after application, rating scale 0-100
In short: as §2

[24] = system: common ragweed (Ambrosia artemisiifolia L., AMBEL); assay: as above; conditions: 14 days after application, rating scale 0-100
In short: as §2

[25] = system: sicklepod (Cassia obtusifolia, CASOB); assay: as above; conditions: 14 days after application, rating scale 0-100
In short: as §2

[26] = system: redroot pigweed (Amaranthus retroflexus, AMARE); assay: as above; conditions: 14 days after application, rating scale 0-100
In short: as §2

Grass Weeds = assay: Pre-emergent application in combination with other herbicides, percent control of grass weeds; conditions: 1121 g ai/ha
Method: (§3) All plants were grown in 10 cm square plastic pots which were filled with a sandy loam soil mix. For preemerge tests, seeds were planted one day prior to application of the test compounds. Immediately after application, test units of the pre-emerge applications were watered at the soil surface to incorporate the test materials. Subsequently, these test units were bottom-watered.
(§4) All test compounds were dissolved in acetone and applied to the test units in a volume of 187 l/ha. […] Plants were arranged on a shelf so that the top of the canopy (post-emerge) or top of the soil surface (pre-emerge) was 40-45 cm below the nozzle. Pressurized air was used to force the test solution through the nozzle as it was mechanically advanced (via electrically driven chain drive) over the top of all test plants/pots. This application simulates a typical commercial field herbicide application.
(§5) At 14 days after application of the test materials, phytotoxicity ratings were recorded. A rating scale of 0-100 was used as previously described in Research Methods in Weed Science, 2nd edition, B. Truelove, Ed., Southern Weed Science Society, Auburn University, Auburn, Ala., 1977. Briefly, “0” corresponds to no damage and “100” corresponds to complete death of all plants in the test unit. This scale was used both to determine efficacy against weed species and damage to crop species. Herbicide activity data for various compounds of this invention, which are shown by compound number in Tables 1-9, are shown in Tables 13 and 14.
(§6) (Note: Weed species abbreviations are from the Composite List of Weeds published by the Weed Science Society of America, 1989.)
(§7) The following examples illustrate the utility of combinations of compounds of this invention and existing herbicides. The methods used are identical to those for the application of single compounds except the commercial formulations of existing herbicides were added to the spray mixture in the appropriate amounts before spraying.
Combination Example 1. Pre-emergent Application of Compound 9-1 with Metolachlor
(§8) Combination Example 2. Pre-emergent Application of Compound 9-1 with Dimethenamid

Broadleaf Weeds = assay: Pre-emergent application in combination with other herbicides, percent control of broadleaf weeds
Method: as §3, §4, §5, §6
as §7, with “spraying. […]” for “spraying.”
as §8

Nc1cccnc1Oc1cc(-n2c(=O)n3n(c2=S)CCCC3)c(F)cc1Cl [Compound 8-42]
100: phytotoxicity rating ABUTH ([5]; rate 63 g ai/ha) | phytotoxicity rating ABUTH ([5]; rate 250 g ai/ha) | ABUTH phytotoxicity rating ([18]; Rate 125 g al/ha) | ABUTH phytotoxicity rating ([18]; Rate 250 g al/ha) | CHEAL phytotoxicity rating ([19]; Rate 250 g al/ha) | CASOB phytotoxicity rating ([25]; Rate 125 g al/ha) | AMARE phytotoxicity rating ([26]; Rate 125 g al/ha) | AMARE phytotoxicity rating ([26]; Rate 250 g al/ha)
80: phytotoxicity rating CHEAL ([6]; rate 250 g ai/ha) | CHEAL phytotoxicity rating ([19]; Rate 125 g al/ha) | CASOB phytotoxicity rating ([25]; Rate 250 g al/ha)
0i: SORHA phytotoxicity rating ([21]; Rate 250 g al/ha)
60: crop damage rating SOY ([2]; rate 250 g ai/ha) | phytotoxicity rating IPOHE ([10]; rate 63 g ai/ha)
70: phytotoxicity rating IPOHE ([10]; rate 250 g ai/ha)
40: phytotoxicity rating AMBEL ([1]; rate 63 g ai/ha)
20: crop damage rating SOY ([2]; rate 63 g ai/ha) | SOY crop damage rating ([3]; Rate 250 g al/ha)
0: SOY crop damage rating ([3]; Rate 125 g al/ha) | phytotoxicity rating ECHCG ([4]; rate 63 g ai/ha) | phytotoxicity rating ECHCG ([4]; rate 250 g ai/ha) | phytotoxicity rating DIGSA ([7]; rate 63 g ai/ha) | phytotoxicity rating DIGSA ([7]; rate 250 g ai/ha) | phytotoxicity rating SORHA ([8]; rate 63 g ai/ha) | phytotoxicity rating SORHA ([8]; rate 250 g ai/ha) | phytotoxicity rating SETVI ([9]; rate 63 g ai/ha) | phytotoxicity rating SETVI ([9]; rate 250 g ai/ha) | phytotoxicity rating CASOB ([11]; rate 63 g ai/ha) | phytotoxicity rating CASOB ([11]; rate 250 g ai/ha) | RICE crop damage rating ([13]; Rate 125 g al/ha) | RICE crop damage rating ([13]; Rate 250 g al/ha) | CORN crop damage rating ([14]; Rate 125 g al/ha) | CORN crop damage rating ([14]; Rate 250 g al/ha) | crop damage rating RICE ([15]; rate 63 g ai/ha) | crop damage rating RICE ([15]; rate 250 g ai/ha) | crop damage rating CORN ([16]; rate 63 g ai/ha) | crop damage rating CORN ([16]; rate 250 g ai/ha) | ECHCG phytotoxicity rating ([17]; Rate 125 g al/ha) | ECHCG phytotoxicity rating ([17]; Rate 250 g al/ha) | DIGSA phytotoxicity rating ([20]; Rate 125 g al/ha) | DIGSA phytotoxicity rating ([20]; Rate 250 g al/ha) | SORHA phytotoxicity rating ([21]; Rate 125 g al/ha) | SETVI phytotoxicity rating ([22]; Rate 125 g al/ha) | SETVI phytotoxicity rating ([22]; Rate 250 g al/ha) | AMBEL phytotoxicity rating ([24]; Rate 125 g al/ha)
50: phytotoxicity rating CHEAL ([6]; rate 63 g ai/ha) | phytotoxicity rating AMARE ([12]; rate 63 g ai/ha) | IPOHE phytotoxicity rating ([23]; Rate 250 g al/ha)
90: phytotoxicity rating AMBEL ([1]; rate 250 g ai/ha)
95: phytotoxicity rating AMARE ([12]; rate 250 g ai/ha)
30: IPOHE phytotoxicity rating ([23]; Rate 125 g al/ha) | AMBEL phytotoxicity rating ([24]; Rate 250 g al/ha)

COCC(C)N(C(=O)CCl)c1c(C)csc1C (stereo not drawn) [Dimethenamid, reference compound]
0%: Percent Control of Broadleaf Weeds IPOHE (Broadleaf Weeds; 520 g ai/ha)
40%: Percent Control of Broadleaf Weeds ABUTH (Broadleaf Weeds; 520 g ai/ha) | Percent Control of Broadleaf Weeds AMBEL (Broadleaf Weeds; 520 g ai/ha) | Percent Control of Broadleaf Weeds CASOB (Broadleaf Weeds; 520 g ai/ha)
30%: Percent Control of Broadleaf Weeds CHEAL (Broadleaf Weeds; 520 g ai/ha)
100%: Percent Control of Grass Weeds DIGSA (Grass Weeds; Combination Example 2) | Percent Control of Grass Weeds ECHCG (Grass Weeds; Combination Example 2) | Percent Control of Grass Weeds SETVI (Grass Weeds; Combination Example 2) | Percent Control of Grass Weeds SORHA (Grass Weeds; Combination Example 2) | Percent Control of Broadleaf Weeds AMARE (Broadleaf Weeds; 520 g ai/ha)

CCc1cccc(C)c1N(C(=O)CCl)C(C)COC (stereo not drawn) [Metolachlor, reference compound]
30%: Percent Control of Broadleaf Weeds AMBEL (Broadleaf Weeds; 1121 g ai/ha)
10%: Percent Control of Broadleaf Weeds CASOB (Broadleaf Weeds; 1121 g ai/ha)
20%: Percent Control of Broadleaf Weeds ABUTH (Broadleaf Weeds; 1121 g ai/ha) | Percent Control of Broadleaf Weeds IPOHE (Broadleaf Weeds; 1121 g ai/ha)
100%: Percent Control of Grass Weeds DIGSA (Grass Weeds) | Percent Control of Grass Weeds ECHCG (Grass Weeds) | Percent Control of Grass Weeds SETVI (Grass Weeds) | Percent Control of Grass Weeds SORHA (Grass Weeds) | Percent Control of Broadleaf Weeds AMARE (Broadleaf Weeds; 1121 g ai/ha)
90%: Percent Control of Broadleaf Weeds CHEAL (Broadleaf Weeds; 1121 g ai/ha)
